#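 GI50 = concentration required for 50% inhibition of growth. TGI denotes the concentration required for complete inhibition of growth.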
# Assays:
# Experiment in all cases: NCI anticancer screen, dose series, 384-well format
# 786-0 renal = system: 786-0 renal
# A498 renal = system: A498 renal
# A549 NSCLC = system: A549 NSCLC
# ACHN renal = system: ACHN renal
# BT-549 breast = system: BT-549 breast
# CAKI-1 renal = system: CAKI-1 renal
# CCRF-CEM leukemia = system: CCRF-CEM leukemia
# COLO 205 colon = system: COLO 205 colon
# DU-145 prostate = system: DU-145 prostate
# EKVX NSCLC = system: EKVX NSCLC
# HCC-2998 colon = system: HCC-2998 colon
# HCT-116 colon = system: HCT-116 colon
# HCT-15 colon = system: HCT-15 colon
# HL-60(TB) leukemia = system: HL-60(TB) leukemia
# HOP-62 NSCLC = system: HOP-62 NSCLC
# HOP-92 NSCLC = system: HOP-92 NSCLC
# HS 578T breast = system: HS 578T breast
# HT29 colon = system: HT29 colon
# IGROV1 ovarian = system: IGROV1 ovarian
# K-562 leukemia = system: K-562 leukemia
# KM12 colon = system: KM12 colon
# LOX IMVI melanoma = system: LOX IMVI melanoma
# M14 melanoma = system: M14 melanoma
# MALME-3M melanoma = system: MALME-3M melanoma
# MCF7 breast = system: MCF7 breast
# MDA-MB-231 breast = system: MDA-MB-231 breast
# MDA-MB-435 melanoma = system: MDA-MB-435 melanoma
# MDA-MB-468 breast = system: MDA-MB-468 breast
# MOLT-4 leukemia = system: MOLT-4 leukemia
# NCI-H226 lung = system: NCI-H226 lung
# NCI-H23 lung = system: NCI-H23 lung
# NCI-H322M lung = system: NCI-H322M lung
# NCI-H460 NSCLC = system: NCI-H460 NSCLC
# NCI-H522 lung = system: NCI-H522 lung
# NCI/ADR-RES ovarian = system: NCI/ADR-RES ovarian
# OVCAR-3 ovarian = system: OVCAR-3 ovarian
# OVCAR-4 ovarian = system: OVCAR-4 ovarian
# OVCAR-5 ovarian = system: OVCAR-5 ovarian
# OVCAR-8 ovarian = system: OVCAR-8 ovarian
# PC-3 prostate = system: PC-3 prostate
# RPMI-8226 leukemia = system: RPMI-8226 leukemia
# RXF 393 renal = system: RXF 393 renal
# SF-268 CNS = system: SF-268 CNS
# SF-295 CNS = system: SF-295 CNS
# SF-539 CNS = system: SF-539 CNS
# SK-MEL-28 melanoma = system: SK-MEL-28 melanoma
# SK-MEL-5 melanoma = system: SK-MEL-5 melanoma
# SK-OV-3 ovarian = system: SK-OV-3 ovarian
# SN12C renal = system: SN12C renal
# SNB-19 CNS = system: SNB-19 CNS
# SNB-75 CNS = system: SNB-75 CNS
# SW-620 colon = system: SW-620 colon
# T-47D breast = system: T-47D breast
# TK-10 renal = system: TK-10 renal
# U251 glioblastoma = system: U251 glioblastoma
# UACC-257 melanoma = system: UACC-257 melanoma
# UACC-62 melanoma = system: UACC-62 melanoma
# UO-31 renal = system: UO-31 renal
compound,measurement,setting,value
Cc1nnn(C)c1-c1cnc2c3ccc(C(C)(C)O)cc3n([C@H](c3ccccc3)C3CCOCC3)c2c1,GI50,786-0 renal,0.015 µM
same,TGI,786-0 renal,11.7 µM
same,GI50,A498 renal,< 0.01 µM
same,TGI,A498 renal,10.7 µM
same,GI50,A549 NSCLC,< 0.01 µM
same,TGI,A549 NSCLC,13 µM
same,GI50,ACHN renal,0.0445 µM
same,TGI,ACHN renal,12.2 µM
same,GI50,BT-549 breast,< 0.01 µM
same,TGI,BT-549 breast,0.0727 µM
same,GI50,CAKI-1 renal,< 0.01 µM
same,TGI,CAKI-1 renal,3.96 µM
same,GI50,CCRF-CEM leukemia,< 0.01 µM
same,TGI,CCRF-CEM leukemia,1.42 µM
same,GI50,COLO 205 colon,< 0.01 µM
same,TGI,COLO 205 colon,0.331 µM
same,GI50,DU-145 prostate,0.753 µM
same,TGI,DU-145 prostate,22.1 µM
same,GI50,EKVX NSCLC,3.19 µM
same,TGI,EKVX NSCLC,21.6 µM
same,GI50,HCC-2998 colon,< 0.01 µM
same,TGI,HCC-2998 colon,0.0497 µM
same,GI50,HCT-116 colon,0.0242 µM
same,TGI,HCT-116 colon,12.8 µM
same,GI50,HCT-15 colon,0.0139 µM
same,TGI,HCT-15 colon,1.32 µM
same,GI50,HL-60(TB) leukemia,< 0.01 µM
same,GI50,HOP-62 NSCLC,< 0.01 µM
same,TGI,HOP-62 NSCLC,2.77 µM
same,GI50,HOP-92 NSCLC,0.0253 µM
same,TGI,HOP-92 NSCLC,14.5 µM
same,GI50,HS 578T breast,< 0.01 µM
same,TGI,HS 578T breast,0.758 µM
same,GI50,HT29 colon,< 0.01 µM
same,TGI,HT29 colon,15.1 µM
same,GI50,IGROV1 ovarian,< 0.01 µM
same,TGI,IGROV1 ovarian,1.36 µM
same,GI50,K-562 leukemia,< 0.01 µM
same,TGI,K-562 leukemia,13.8 µM
same,GI50,KM12 colon,< 0.01 µM
same,TGI,KM12 colon,10.8 µM
same,GI50,LOX IMVI melanoma,< 0.01 µM
same,TGI,LOX IMVI melanoma,0.0113 µM
same,GI50,M14 melanoma,< 0.01 µM
same,TGI,M14 melanoma,15.7 µM
same,GI50,MALME-3M melanoma,< 0.01 µM
same,TGI,MALME-3M melanoma,0.268 µM
same,GI50,MCF7 breast,< 0.01 µM
same,TGI,MCF7 breast,0.435 µM
same,GI50,MDA-MB-231 breast,< 0.01 µM
same,TGI,MDA-MB-231 breast,11.8 µM
same,GI50,MDA-MB-435 melanoma,0.0431 µM
same,TGI,MDA-MB-435 melanoma,61.7 µM
same,GI50,MDA-MB-468 breast,< 0.01 µM
same,TGI,MDA-MB-468 breast,1.22 µM
same,GI50,MOLT-4 leukemia,< 0.01 µM
same,TGI,MOLT-4 leukemia,0.211 µM
same,GI50,NCI-H226 lung,< 0.01 µM
same,TGI,NCI-H226 lung,10.3 µM
same,GI50,NCI-H23 lung,< 0.01 µM
same,TGI,NCI-H23 lung,3.35 µM
same,GI50,NCI-H322M lung,0.019 µM
same,TGI,NCI-H322M lung,17.5 µM
same,GI50,NCI-H460 NSCLC,0.354 µM
same,TGI,NCI-H460 NSCLC,15.6 µM
same,GI50,NCI-H522 lung,< 0.01 µM
same,TGI,NCI-H522 lung,0.0106 µM
same,GI50,NCI/ADR-RES ovarian,0.197 µM
same,TGI,NCI/ADR-RES ovarian,8.56 µM
same,GI50,OVCAR-3 ovarian,< 0.01 µM
same,TGI,OVCAR-3 ovarian,1.71 µM
same,GI50,OVCAR-4 ovarian,< 0.01 µM
same,TGI,OVCAR-4 ovarian,0.0212 µM
same,GI50,OVCAR-5 ovarian,< 0.01 µM
same,TGI,OVCAR-5 ovarian,12.6 µM
same,GI50,OVCAR-8 ovarian,< 0.01 µM
same,TGI,OVCAR-8 ovarian,1.3 µM
same,GI50,PC-3 prostate,< 0.01 µM
same,TGI,PC-3 prostate,25 µM
same,GI50,RPMI-8226 leukemia,< 0.01 µM
same,GI50,RXF 393 renal,< 0.01 µM
same,TGI,RXF 393 renal,0.155 µM
same,GI50,SF-268 CNS,0.0793 µM
same,TGI,SF-268 CNS,16.8 µM
same,GI50,SF-295 CNS,0.38 µM
same,TGI,SF-295 CNS,17 µM
same,GI50,SF-539 CNS,0.0103 µM
same,TGI,SF-539 CNS,0.0543 µM
same,GI50,SK-MEL-28 melanoma,0.0899 µM
same,TGI,SK-MEL-28 melanoma,24.2 µM
same,GI50,SK-MEL-5 melanoma,< 0.01 µM
same,TGI,SK-MEL-5 melanoma,1.11 µM
same,GI50,SK-OV-3 ovarian,< 0.01 µM
same,TGI,SK-OV-3 ovarian,1.45 µM
same,GI50,SN12C renal,1.21 µM
same,TGI,SN12C renal,20.6 µM
same,GI50,SNB-19 CNS,0.032 µM
same,TGI,SNB-19 CNS,20.3 µM
same,GI50,SNB-75 CNS,0.299 µM
same,TGI,SNB-75 CNS,14 µM
same,GI50,SW-620 colon,1.74 µM
same,TGI,SW-620 colon,17.4 µM
same,GI50,T-47D breast,0.0137 µM
same,TGI,T-47D breast,11.1 µM
same,GI50,TK-10 renal,< 0.01 µM
same,TGI,TK-10 renal,0.0908 µM
same,GI50,U251 glioblastoma,0.315 µM
same,TGI,U251 glioblastoma,12.7 µM
same,GI50,UACC-257 melanoma,< 0.01 µM
same,TGI,UACC-257 melanoma,5.55 µM
same,GI50,UACC-62 melanoma,< 0.01 µM
same,TGI,UACC-62 melanoma,0.146 µM
same,GI50,UO-31 renal,0.0132 µM
same,TGI,UO-31 renal,13.4 µM

# Source: PubChem BioAssay (NCI)
